Results reported in article PMC2634297 (Bioorganic & medicinal chemistry letters, 2008).

Columns and labels:
[1] = system: brain serine hydrolases; assay type: biochemical, mouse
[2] = biological target: BAT5 (60 kDa hydrolase) (Mus musculus, UniProt Q9Z1Q2); assay type: biochemical
[3] = biological target: BAT5 (Mus musculus, UniProt Q9Z1Q2); test: biochemical
[4] = biological target: PLA2g7 (Mus musculus, UniProt Q60963); test: biochemical
[5] = biological target: KIAA1363 (Mus musculus, UniProt Q8BLF1); test: biochemical
KIAA1363, sequence (Q8BLF1 whole entry): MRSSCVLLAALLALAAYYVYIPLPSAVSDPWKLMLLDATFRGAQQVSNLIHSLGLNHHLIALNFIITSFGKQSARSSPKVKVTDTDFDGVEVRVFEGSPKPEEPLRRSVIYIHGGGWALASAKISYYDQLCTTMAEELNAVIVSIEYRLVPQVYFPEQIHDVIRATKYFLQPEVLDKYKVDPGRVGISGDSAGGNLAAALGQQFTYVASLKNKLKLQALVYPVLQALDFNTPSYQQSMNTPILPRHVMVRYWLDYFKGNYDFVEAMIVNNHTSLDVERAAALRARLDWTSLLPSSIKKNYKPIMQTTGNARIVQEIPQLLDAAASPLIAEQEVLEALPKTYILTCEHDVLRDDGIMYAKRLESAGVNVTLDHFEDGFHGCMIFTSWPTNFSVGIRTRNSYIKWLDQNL

[6] = biological target: FAAH (Mus musculus, UniProt O08914); test: biochemical
FAAH, sequence (O08914 whole entry): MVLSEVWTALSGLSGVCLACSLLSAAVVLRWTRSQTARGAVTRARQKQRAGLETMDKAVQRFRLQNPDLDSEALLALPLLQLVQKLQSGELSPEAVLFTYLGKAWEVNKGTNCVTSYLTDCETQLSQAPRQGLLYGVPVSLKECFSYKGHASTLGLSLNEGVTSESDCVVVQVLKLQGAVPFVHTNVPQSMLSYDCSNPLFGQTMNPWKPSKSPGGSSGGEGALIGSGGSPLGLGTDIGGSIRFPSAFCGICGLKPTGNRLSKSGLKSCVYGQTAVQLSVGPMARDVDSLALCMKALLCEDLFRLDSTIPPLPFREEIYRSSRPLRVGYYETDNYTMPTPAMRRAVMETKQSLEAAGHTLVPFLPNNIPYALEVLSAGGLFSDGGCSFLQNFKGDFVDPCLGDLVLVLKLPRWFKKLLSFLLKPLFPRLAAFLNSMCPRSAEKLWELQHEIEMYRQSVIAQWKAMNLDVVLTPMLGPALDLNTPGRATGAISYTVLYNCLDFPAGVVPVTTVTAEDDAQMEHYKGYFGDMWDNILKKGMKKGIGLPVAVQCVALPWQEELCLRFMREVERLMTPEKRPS

[7] = biological target: ABHD12 (Mus musculus, UniProt Q99LR1); test: biochemical
ABHD12, sequence (Q99LR1 whole entry): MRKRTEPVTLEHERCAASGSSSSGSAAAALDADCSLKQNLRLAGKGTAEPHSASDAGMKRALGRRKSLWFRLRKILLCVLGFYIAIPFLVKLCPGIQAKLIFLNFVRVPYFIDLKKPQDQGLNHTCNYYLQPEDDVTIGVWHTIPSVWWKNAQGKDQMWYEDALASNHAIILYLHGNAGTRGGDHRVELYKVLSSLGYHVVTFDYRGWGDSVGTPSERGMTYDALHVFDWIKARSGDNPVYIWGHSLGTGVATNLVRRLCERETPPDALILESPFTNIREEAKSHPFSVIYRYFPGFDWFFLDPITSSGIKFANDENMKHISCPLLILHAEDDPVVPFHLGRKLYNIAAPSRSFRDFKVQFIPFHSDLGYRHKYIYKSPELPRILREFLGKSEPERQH

BAT5, sequence (Q9Z1Q2 whole entry): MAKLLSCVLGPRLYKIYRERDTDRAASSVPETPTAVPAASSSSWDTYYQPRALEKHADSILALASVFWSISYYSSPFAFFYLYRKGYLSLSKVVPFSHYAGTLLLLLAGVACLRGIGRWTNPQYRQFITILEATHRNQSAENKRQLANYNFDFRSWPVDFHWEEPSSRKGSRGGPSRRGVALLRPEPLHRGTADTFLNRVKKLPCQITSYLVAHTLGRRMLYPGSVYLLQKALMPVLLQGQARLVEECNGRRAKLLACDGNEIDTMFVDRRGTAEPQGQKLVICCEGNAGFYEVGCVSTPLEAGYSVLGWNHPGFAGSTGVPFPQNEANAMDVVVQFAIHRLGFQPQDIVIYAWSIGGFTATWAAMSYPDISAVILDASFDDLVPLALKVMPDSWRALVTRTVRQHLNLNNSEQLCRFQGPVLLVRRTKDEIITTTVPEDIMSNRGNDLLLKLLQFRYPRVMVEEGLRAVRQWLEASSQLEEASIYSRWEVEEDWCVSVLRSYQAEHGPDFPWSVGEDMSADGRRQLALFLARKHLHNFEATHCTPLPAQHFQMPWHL
PLA2g7, sequence (Q60963 22-440): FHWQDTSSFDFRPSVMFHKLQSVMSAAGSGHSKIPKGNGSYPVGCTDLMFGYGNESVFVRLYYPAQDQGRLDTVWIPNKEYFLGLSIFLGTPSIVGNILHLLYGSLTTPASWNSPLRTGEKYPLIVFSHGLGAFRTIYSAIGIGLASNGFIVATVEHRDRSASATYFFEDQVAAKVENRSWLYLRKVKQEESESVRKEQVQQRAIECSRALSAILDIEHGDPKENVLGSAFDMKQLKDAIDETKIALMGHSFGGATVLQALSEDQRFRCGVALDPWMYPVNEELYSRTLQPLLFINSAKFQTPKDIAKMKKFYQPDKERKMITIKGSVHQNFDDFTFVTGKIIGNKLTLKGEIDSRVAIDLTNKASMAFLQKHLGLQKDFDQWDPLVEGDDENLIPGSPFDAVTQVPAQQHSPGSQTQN
BAT5 (60 kDa hydrolase), sequence (Q9Z1Q2 whole entry): as the sequence (Q9Z1Q2 whole entry) above

Compound	number of hydrolase activities whose labeling is blocked [1]	sensitivity of 60 kDa hydrolase (tentatively BAT5) to inhibitor [2]	IC50 [3]	inhibition of recombinant BAT5 (in words) [3]	IC50 [4]	inhibition of recombinant PLA2g7 (in words) [4]	IC50 [5]	inhibition of recombinant KIAA1363 (in words) [5]	IC50 [6]	inhibition of recombinant FAAH (in words) [6]	IC50 [7]
O=C(NCCCCCCNC(=O)ON=C1CCCCC1)ON=C1CCCCC1 [RHC80267]	three	sensitive	10 to 70 µM	inhibited	10 to 70 µM	inhibited	10 to 70 µM	inhibited	10 to 70 µM	inhibited	
CCCCCCCCCCC[C@@H](C[C@@H]1OC(=O)[C@H]1CCCCCC)OC(=O)[C@H](CC(C)C)NC=O [THL, tetrahydrolipstatin]		sensitive	< 0.1 µM	inhibited	< 0.1 µM	inhibited					< 0.1 µM
